Details of series [1]: method as in PMID 21553931. Particulars: cited from earlier work.
The subject of series [2] is mice. Description: Open field test (locomotion). The conditions noted are these: 30 min after AKBA or vehicle administration. In kind it is in vivo. The procedure: Mice were placed in an open field arena and allowed to explore for 30 min [25]. After each trial, the arena floor was cleaned with 70% ethanol to avoid inter-assay bias. The movements of mice were video recorded and analyzed by ANY-maze tracking software (Ugo Basile-Varese, Gemonio, Italy). Locomotion was evaluated through total crossing measurements.

Series [3] concerns Aβ-treated mice. The series can be described thus: Tail suspension test in Aβ-treated mice. In kind it is in vivo. Particulars: mice 7 days after icv Aβ 4 µM, sublingual AKBA 5 mg/kg 30 min before, Aβ vs SHAM.
Series [4] can be described thus: Cerebral AKBA quantification by GC-MS/IT after sublingual or intranasal administration. It counts as in vivo, mice. The conditions noted are these: 5 mg/kg. The procedure:
AKBA (Cayman Chemical Company) was dissolved in sunflower oil, this vehicle was chosen in order to maintain a better tasting and higher density of the final solution thus reducing reflux through the digestive tract. […] Ten µL of the solution (or vehicle alone) was sublingually administered to mice. For intranasal administration, requiring more hydrophilic solution, AKBA was dissolved in DMSO and saline (1:3, v/v), and given to mice at the same final dose of 5 mg/kg. Cerebral AKBA was quantified in a separate subset of mice at 5, 15 and 30 min after its administration, either sublingually or intranasally.
After administration, whole brains were put in 1 mL of a solution of chloroform/methanol (1:1 v/v), sonicated and then homogenates were centrifuged at 4 °C for 20 min (10,000 rpm). The pellets were then removed, and the remaining supernatants were dried on sodium sulphate anhydrous, filtered with 0.20 µm PTFE syringe filters and used for chemical analysis. The quantification of 3-O-acetyl-11-keto-β-boswellic acid (AKBA) was performed by using GC-MS/IT equipment composed of a gas chromatograph GC-7890B (Agilent Technologies, Santa Clara, CA, USA) coupled with an ion trap mass spectrometer IT-240 (Agilent Technologies).
The gas chromatograph was equipped with a VF-5 ms (Agilent J&W GC Columns) capillary column, 30 m × 0.25 mm i.d. × 0.25 µm. The column oven was set at 50 °C for 1 min after injection; then the temperature was increased from 50 °C to 300 °C with a ramp of 5 °C/min and a hold time of 10 min. The purge process was performed at the end of each run, increasing the oven temperature from 300 °C to 325 °C at 10 °C/min and a hold time of 1.5 min. The total time for each run was approximately 65 min. The injection volume was 2 µL (splitless) with a continuous flow rate of 1 mL/min of ultra-high purity helium (BIP®) and an injector temperature of 250 °C.
The MS electron multiplier voltage was set at 1450 V, and an ionization time of 65,000 µs was used, running in the electron impact (EI) mode. The transfer line, ion trap and manifold temperatures were set at 270 °C, 180 °C and 70 °C, respectively. The mass spectrometer firstly operated in full scan mode (50–700 m/z) with the ionizing voltage at 70 eV. […] Peaks at m/z 408 and m/z 393 were identified as M-AcOH-CO2 and M-AcOH-CO2-CH3. The peak at m/z 273 was identified as fragment A, resulting from retro-Diels–Alder fragmentation, while the peak at m/z 232 was identified as fragment B, generated from McLafferty fragmentation. These characteristic fragments were selected as a mass target to develop the MS acquisition method operating in single ion scan mode (SIS) to improve the LOD and LOQ for AKBA quantification. […]

Series [5] concerns kynurenine (KYN). Description: Kynurenine quantification in PFC and HIPP by HPLC with electrochemical detection. In kind it is in vivo. The conditions noted are these: mice 7 days after icv Aβ 4 µM, sublingual AKBA 5 mg/kg 30 min earlier. Here is the method: All behavioral experiments were conducted at 5 or 30 min after sublingual administrations of AKBA or vehicle in either SHAM or Aβ-treated mice. Based upon behavioral outcomes observed, neurochemical and biochemical quantifications were performed 30 min after AKBA or vehicle administration in either SHAM or Aβ-treated mice.
Anesthetized animals were sacrificed by cervical dislocation. Brains were immediately removed and kept on ice for dissection of PFC and HIPP, according to the atlas of Paxinos and Franklin. Tissues were frozen and stored at −80 °C until analyses were carried out. Samples (PFC and HIPP) were homogenized (1:10 w/v) at 4 °C using a PBS buffer containing a 1:100 protease and phosphatase inhibitor cocktail (HALT inhibitors, Thermo Fisher Scientific, Cleveland, OH, USA) for biochemical analyses or perchloric acid 0.1 M for neurochemical analyses. Homogenates were centrifuged at 13,000× g at 4 °C for 20 min, and supernatants were used for further determinations.
5-HT, noradrenaline (NA), and KYN levels were measured in the PFC and HIPP of mice by HPLC coupled with an electrochemical detector (Ultimate ECD, Thermo Scientific Dionex, Milan, Italy) as already reported. Separation was performed by a LC18 reverse phase column (Kinetex, 150 mm × 3.0 mm, ODS 5 μm; Phenomenex, Castel Maggiore-Bologna, Italy). The detection was accomplished by a thin layer amperometric cell (Thermo Scientific Dionex, Milan, Italy) with a 5 mm diameter glassy carbon electrode at a working potential of 400 mV (5-HT and NA) or 0.750 mV (KYN) vs. Pd. The mobile phase consisted of an aqueous buffer containing 75 mM NaH2PO4, 1.7 mM octane sulfonic acid, 0.3 mM EDTA, and acetonitrile 10%, buffered at pH 3.0. The flow rate was kept at 0.7 mL·min-1 by an isocratic pump (Shimadzu LC-10 AD, Kyoto, Japan). Data acquisition and integration were performed by using Chromeleon software (version 6.80, Thermo Scientific Dionex, Milan, Italy). GLU concentrations were determined by HPLC coupled with fluorescence detection (emission length 460 nm; excitation length 340 nm), as previously published. Analyses were carried out using an LC18 reverse phase column (Kinetex, 150 mm × 3.0 mm, ODS 5 μm; Phenomenex, Castel Maggiore, Bologna, Italy) and detection was accomplished by pre-column derivatization with ophthalaldehyde/mercaptopropionic acid. The mobile phase consisted of a 50 mM sodium acetate buffer, at pH 6.95, with gradient methanol increasing linearly from 2 to 30% (v/v) over a 40 min run. […] Results were analyzed by Borwin software (version 1.50; Jasco, Cremella, Italy) and the amino acid concentration was expressed as µM. All data were normalized for total area weight and were expressed as concentration/mg of tissue.

For `CC(=O)O[C@@H]1CC[C@@]2(C)[C@@H](CC[C@]3(C)[C@@H]2C(=O)C=C2[C@@H]4[C@@H](C)[C@H](C)CC[C@]4(C)CC[C@]23C)[C@@]1(C)C(=O)O` [AKBA, 3-O-acetyl-11-keto-β-boswellic acid], the Oral bioavailability entry in series [1] is given as “low oral bioavailability”. For the same compound, in series [2], the “Locomotion in the open field test” value was “no difference”. Besides, the “Immobility time in the tail suspension test” value in series [3] is reported as “prevented such an effect”. The “Cerebral AUCs, sublingual vs intranasal” value in series [4] (same dose by both routes) is reported as “sublingual route of administration was characterized by higher bioavailability”. Further, the “Crossing of the blood brain barrier” value in series [4] (sublingual or intranasal) is “rapidly crossed the blood brain barrier”. Also, in series [4] (sublingual or intranasal, sampled at 5, 15, 30 min), the “Time of highest cerebral AKBA concentrations after administration” value stood at 5 min. For the same compound, in series [4] (sublingual vs intranasal, 5, 15 and 30 min after administration), the “Cerebral AKBA levels (whole brain)” value is reported as “significantly higher after sublingual administration compared to intranasal”. Also, in series [5] (HIPP), the “KYN levels in the HIPP” value is recorded as “prevented the increase in KYN levels”. Moreover, the “KYN levels in the PFC” value in series [5] (PFC) is “prevented such an increase”.

Source of the values: publication PMC8170916, “Sublingual AKBA Exerts Antidepressant Effects in the Aβ-Treated Mouse Model” (Biomolecules, 2021).
